Values quoted from earlier work as cited in patent US20040202718A1, “Dosage form for treatment of diabetes mellitus” (priority 2001, published 2004).
Where a name gives a salt, the structure may show the parent alone.

Conditions: clinical study disclosed in U.S. Pat. No. 5,922,769

**Q.** For `CN(C)C(=N)N=C(N)N` [Metformin hydrochloride], which “maximum dose which does not cause any side-effects” value is on record?
**A.** 1500 mg/day
